In assay [1] the test system is p-CREB (phosphorylated cAMP response-element binding protein) in human whole blood. The experiment in a line: p-CREB assay in human whole blood by flow cytometry (NECA stimulation, CD4 staining). Type of assay: cell-based. The method, then:
Assay protocol for p-CREB (phosphorylated cAMP response-element binding protein) in human whole blood by flow cytometry
Fresh human whole blood (Biological Specialty Corporation) was added at 100 ul per wellinto a 96-well plate and treated with test compounds (Serial dilutions of 1:3 with starting concentration at 30 uM, 11 concentrations total, in the presence of adenosine deaminase) for one hour at room temperature on a plate shaker. Then 10 ul of 10× NECA (50 uM stock in PBS) and 10 ul of 10 × Rolipram (50 uM stock in PBS) were added, with designated wells for unstimulated (Rolipram+DMSO) and stimulated (Rolipram+NECA+DMSO) conditions. The plates were mixed well and incubated at room temperature for 30 min on a plate shaker. 1× lyse/Fix buffer (5× stock, BD #558049) was warmed to 37° in a water bath. 1200 ul of pre-warmed 1× lyse/Fix buffer was then added to the plate, which was then sealed and mixed by inverting the plate a few times. The plate was then incubated for 30 min at 37° in a water bath. After incubation, the plate was centrifuged at 1600 rpm for 5 min and the supernatant was decanted, then 1200 ul PBS was added and the plate was mixed by inverting a few times followed by centrifuging at 1600 rpm for 5 min and again decanting the supernatant. Then, 200 ul FIX PERM buffer II (BD #558052) was added and the plate was mixed well, then kept on ice for 45 min After spinning the plate at 1600 rpm for 5 min the supernatant was again decanted. Then was added 200 ul staining buffer (BD #554657), and the plate was mixed well and spun at 1600 rpm for 5 min, then the supernatant was again decanted. 200 ul staining buffer was added, the plate was mixed well and the plate was sealed at this step for storage at 4° overnight or until staining. Before staining, the plate was spun at 1600 rpm for 5 min and the supernatant was again decanted. Antibody mix in staining buffer was prepared (75 ul/well, 1:50 dilution for p-CREB antibody from Cell Signaling Tech #14001S, 1:200 dilution for CD4 antibody from BD #566320) and the cells were resuspended in the above antibody mix solution. After mixing well, the plate was incubated (shielded from light) at room temperature for two hours on a plate shaker. It was then spun at 1600 rpm for 5 min and the supernatant was decanted. 200 ul staining buffer was then added to wash cells, and the plate was then mixed by shaking or pipetting. The wash step was repeated at least one more time, and after the final wash, cells were resusptended in 200 ul staining buffer in U bottom plate for flow cytometry analysis.

Assay [2] deals with Adenosine A2A receptor (Homo sapiens, UniProt P29274). The assay can be described thus: cAMP assay in 293A cells stably expressing the adenosine A2A receptor (CGS21680 stimulation, HTRF). It is filed as cell-based. Also noted: expressed in transfected cells; host or cells: 293A cells (Invitrogen, Cat# R705-07) infected with A2A-expressing lentivirus (custom packaged by Biosettia), puromycin selected. To be noted: 293A-A2AR cells, 0.1% BSA, 1 uM CGS; read-out: cAMP (nM) 0.1% BSA, 1 uM CGS.

Results on 18 molecules are retold here after patent publication US20210355104A1, “ADENOSINE RECEPTOR BINDING COMPOUNDS” (Nikang Therapeuticsm Inc., priority 2018, published 2021).

“And” between values parts separate entries of the source, which are not always exact repeats. Identical values can stand only once. Like-named read-outs stand apart in the source and are kept apart here.

Chain of Adenosine A2A receptor (P29274 whole entry): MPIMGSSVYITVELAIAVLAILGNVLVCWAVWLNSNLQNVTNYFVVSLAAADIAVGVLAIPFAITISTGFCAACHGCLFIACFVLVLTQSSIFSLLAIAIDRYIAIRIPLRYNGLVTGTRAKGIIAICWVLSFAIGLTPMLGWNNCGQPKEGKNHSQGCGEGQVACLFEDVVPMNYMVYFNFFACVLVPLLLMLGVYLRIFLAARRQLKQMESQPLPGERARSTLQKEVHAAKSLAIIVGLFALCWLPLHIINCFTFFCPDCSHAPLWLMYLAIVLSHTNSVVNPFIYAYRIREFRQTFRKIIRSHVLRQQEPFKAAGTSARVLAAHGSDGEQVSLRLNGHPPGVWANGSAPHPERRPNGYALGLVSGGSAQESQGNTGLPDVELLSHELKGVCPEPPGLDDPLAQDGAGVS

Take `Cc1cc(-c2c(OCc3nccn3C(F)F)nc(N)nc2-c2ccc(F)cc2)cc(C(F)F)n1` [Example 306, 4-((1-(difluoromethyl)-1H-imidazol-2-yl)methoxy)-5-(2-(difluoromethyl)-6-methylpyridin-4-yl)-6-(4-fluorophenyl)pyrimidin-2-amine]: the IC50 was 6.9 nM in assay [1] (Homo sapiens); 26 nM and 23 nM in assay [2].
Take `Cc1cc(-c2c(OCCc3ccccn3)nc(N)nc2-c2ccc(F)cc2)cc(C(F)F)n1` [Example 313, 5-(2-(difluoromethyl)-6-methylpyridin-4-yl)-4-(4-fluorophenyl)-6-(2-(pyridin-2-yl)ethoxy)pyrimidin-2-amine]: the IC50 in assay [1] (Homo sapiens) was 71.5 nM; in assay [2], 20 nM and 64 nM.
Regarding `Cc1cc(-c2c(OCc3nc4ccccc4n3C)nc(N)nc2-c2ccc(F)cc2)cc(C(F)F)n1` [Example 314, 5-(2-(difluoromethyl)-6-methylpyridin-4-yl)-4-(4-fluorophenyl)-6-((1-methyl-1H-benzo[d]imidazol-2-yl)methoxy)pyrimidin-2-amine], the IC50 was 9.8 nM in assay [1] (Homo sapiens); 0.4 nM and 1 nM in assay [2].
For the molecule `CCn1c(COc2nc(N)nc(-c3ccc(F)cc3)c2-c2cc(C)nc(C(F)F)c2)nc2ccccc21` [Example 315, 5-(2-(difluoromethyl)-6-methylpyridin-4-yl)-4-((1-ethyl-1H-benzo[d]imidazol-2-yl)methoxy)-6-(4-fluorophenyl)pyrimidin-2-amine], the IC50 is 24.8 nM in assay [1] (Homo sapiens); 1.8 nM and 15 nM in assay [2].
`Cc1cc(-c2c(OCCN(C)c3cccc(C(C)(C)C#N)n3)nc(N)nc2-c2ccc(F)cc2)cc(C(F)F)n1` [Example 320]: the IC50 in assay [1] (Homo sapiens) is 141 nM; in assay [2] it was 13 nM and 26 nM and 8.7 nM.
Regarding `Cc1cc(-c2c(OCc3cccc(C4CC4)n3)nc(N)nc2-c2ccc(F)cc2)cc(C(F)F)n1` [Example 326, 4-((6-cyclopropylpyridin-2-yl)methoxy)-5-(2-(difluoromethyl)-6-methylpyridin-4-yl)-6-(4-fluorophenyl)pyrimidin-2-amine], the IC50 in assay [1] (Homo sapiens) was 57.1 nM; in assay [2] it was 90 nM and 144 nM and 84 nM.
Turning to `CCn1c(COc2nc(N)nc(-c3ccc(F)cc3)c2-c2cc(C)nc(C(F)F)c2)nc2cccnc21` [Example 329, 5-(2-(difluoromethyl)-6-methylpyridin-4-yl)-4-((3-ethyl-3H-imidazo[4,5-b]pyridin-2-yl)methoxy)-6-(4-fluorophenyl)pyrimidin-2-amine], the IC50 in assay [1] (Homo sapiens) is 128 nM; in assay [2], 87 nM and 249 nM and 153 nM.
Take `Cc1cc(-c2c(OCCN(C)c3cccc(C(C)(C)C(=O)O)n3)nc(N)nc2-c2ccc(F)cc2)cc(C(F)F)n1` [Example 339, 2-(6-((2-((2-amino-5-(2-(difluoromethyl)-6-methylpyridin-4-yl)-6-(4-fluorophenyl)pyrimidin-4-yl)oxy)ethyl)(methyl)amino)pyridin-2-yl)-2-methylpropanoic acid]: the IC50 in assay [1] (Homo sapiens) is 166 nM; in assay [2] it was 561 nM and 795 nM and 230 nM.
Take `Cc1cc(-c2c(OCCc3cccc(C(C)(C)O)n3)nc(N)nc2-c2ccc(F)cc2)cc(C(F)F)n1` [Example 349, 2-(6-(2-((2-amino-5-(2-(difluoromethyl)-6-methylpyridin-4-yl)-6-(4-fluorophenyl)pyrimidin-4-yl)oxy)ethyl)pyridin-2-yl)propan-2-ol]: the IC50 in assay [1] (Homo sapiens) is 55 nM; in assay [2], 261 nM and 120 nM.
For the molecule `Cc1cc(-c2c(OCc3nccs3)nc(N)nc2-c2ccc(F)cc2)cc(C(F)F)n1` [Example 350, 5-(2-(difluoromethyl)-6-methylpyridin-4-yl)-4-(4-fluorophenyl)-6-(thiazol-2-ylmethoxy)pyrimidin-2-amine], the IC50 in assay [1] (Homo sapiens) was 4 nM; in assay [2] it was 26.1 nM and 5.9 nM and 30 nM.
For `Cc1cc(-c2c(OCc3nc4ccccc4n3C(F)F)nc(N)nc2-c2ccc(F)cc2)cc(C(F)F)n1` [Example 355, 4-((1-(difluoromethyl)-1H-benzo[d]imidazol-2-yl)methoxy)-5-(2-(difluoromethyl)-6-methylpyridin-4-yl)-6-(4-fluorophenyl)pyrimidin-2-amine], the IC50 is 5.7 nM in assay [1] (Homo sapiens); 10.2 nM and 11 nM and 13 nM in assay [2].
As for `Cc1cc(-c2c(OCCN(C)c3nccc(C(C)(C)C(=O)O)n3)nc(N)nc2-c2ccc(F)cc2)cc(C(F)F)n1` [Example 373, 2-(2-((2-((2-amino-5-(2-(difluoromethyl)-6-methylpyridin-4-yl)-6-(4-fluorophenyl)pyrimidin-4-yl)oxy)ethyl)(methyl)amino)pyrimidin-4-yl)-2-methylpropanoic acid], the IC50 in assay [1] (Homo sapiens) is 421 nM; in assay [2] it was 240 nM and 248 nM and 387 nM and 191 nM.
As for `CNc1cccc(COc2nc(N)nc(-c3ccc(F)cc3)c2-c2cc(C)nc(C(F)F)c2)n1` [Example 379, 5-(2-(difluoromethyl)-6-methylpyridin-4-yl)-4-(4-fluorophenyl)-6-((6-(methylamino)pyridin-2-yl)methoxy)pyrimidin-2-amine], the IC50 in assay [1] is 10.7 nM; in assay [1] (Homo sapiens), 13.1 nM; in assay [2], 230 nM and 119 nM and 72 nM.
Regarding `Cc1cc(-c2c(OCc3nccc4ccccc34)nc(N)nc2-c2ccc(F)cc2)cc(C(F)F)n1` [Example 381, 5-(2-(difluoromethyl)-6-methylpyridin-4-yl)-4-(4-fluorophenyl)-6-(isoquinolin-1-ylmethoxy)pyrimidin-2-amine], the IC50 in assay [1] (Homo sapiens) was 36 nM; in assay [2], 16 nM and 3.2 nM.
Turning to `Cc1cc(-c2c(OCc3cccc(C(C)(C)C(=O)O)n3)nc(N)nc2-c2ccc(F)cc2)cc(C(F)(F)F)n1` [Example 385, 2-(6-(((2-amino-6-(4-fluorophenyl)-5-(2-methyl-6-(trifluoromethyl)pyridin-4-yl)pyrimidin-4-yl)oxy)methyl)pyridin-2-yl)-2-methylpropanoic acid], the IC50 was 1460 nM in assay [1] (Homo sapiens); 2330 nM and 1020 nM in assay [2].
`CNC(C)(C)c1cccc(COc2nc(N)nc(-c3ccc(F)cc3)c2-c2cc(C)nc(C(F)F)c2)n1` [Example 389, 5-(2-(difluoromethyl)-6-methylpyridin-4-yl)-4-(4-fluorophenyl)-6-((6-(2-(methylamino)propan-2-yl)pyridin-2-yl)methoxy)pyrimidin-2-amine]: the IC50 in assay [1] (Homo sapiens) is 60 nM; in assay [2] it was 231 nM and 114 nM and 100 nM.
As to `Cc1cc(-c2c(OCc3cccc(C4(C(=O)O)CC4)n3)nc(N)nc2-c2ccc(F)cc2)cc(C(F)F)n1` [Example 391, 1-(6-(((2-amino-5-(2-(difluoromethyl)-6-methylpyridin-4-yl)-6-(4-fluorophenyl)pyrimidin-4-yl)oxy)methyl)pyridin-2-yl)cyclopropane-1-carboxylic acid], the IC50 in assay [1] (Homo sapiens) was 602 nM; in assay [2] it was 1130 nM and 979 nM.
Regarding `Cc1cc(-c2c(OCc3cccc(C4(C(=O)O)CCC4)n3)nc(N)nc2-c2ccc(F)cc2)cc(C(F)F)n1` [Example 392, 1-(6-(((2-amino-5-(2-(difluoromethyl)-6-methylpyridin-4-yl)-6-(4-fluorophenyl)pyrimidin-4-yl)oxy)methyl)pyridin-2-yl)cyclobutane-1-carboxylic acid], the IC50 in assay [1] (Homo sapiens) was 353 nM; in assay [2], 186 nM and 139 nM and 180 nM and 209 nM.
